# Laboratory results reported in patent US6737383B1, “Herbicidal oxadiazolidines” (priority 1999, dated 2004).
# What was measured:
# wheat = test: Test B pre/postemergence wheat; assay type: in vivo, Triticum aestivum
# Method in brief: (§1)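 Response is a visual 0-to-10 score relative to untreated plants, where 0 means no effect and 10 means complete control, taken twelve to sixteen days after application. Treatments went onto soil at planting and onto foliage of 1- to 4-leaf plants, using a surfactant-containing non-phytotoxic solvent.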
# bedstraw = test: Test B pre/postemergence bedstraw; assay type: in vivo, Galium aparine
# Method in brief: as §1
# wild oat = test: Test B pre/postemergence wild oat; assay type: in vivo, Avena fatua
# Method in brief: as §1
# crabgrass = test: Test B pre/postemergence crabgrass; assay type: in vivo, Digitaria sanguinalis
# Method in brief: as §1
# corn = test: Test B pre/postemergence corn; assay type: in vivo, Zea mays
# Method in brief: as §1
# giant foxtail = test: Test B pre/postemergence giant foxtail; assay type: in vivo, Setaria faberii
# Method in brief: as §1
# surinam grass = test: Test B pre/postemergence surinam grass; assay type: in vivo, Brachiaria decumbens
# Method in brief: as §1
# velvetleaf = test: Test B pre/postemergence velvetleaf; assay type: in vivo, Abutilon theophrasti
# Method in brief: as §1
# morningglory = test: Test B pre/postemergence morningglory; assay type: in vivo, Ipomoea hederacea
# Method in brief: as §1
# bamyardgrass = test: Test B flood test barnyardgrass; assay type: in vivo, Echinochloa crus-galli
# Method in brief: (§2)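 Read-out is a visual response score from 0 (no effect) to 10 (complete control), assigned by comparison with untreated controls. Treatment was applied at the 2-leaf stage, and plants stayed in the greenhouse for twelve to sixteen days before scoring.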
# pigweed = test: Test B pre/postemergence pigweed; assay type: in vivo, Amaranthus retroflexus
# Method in brief: as §1
# blackgrass = test: Test B pre/postemergence blackgrass; assay type: in vivo, Alopecurus myosuroides
# Method in brief: as §1
# soybean = test: Test B pre/postemergence soybean; assay type: in vivo, Glycine max
# Method in brief: as §1
# rice = test: Test B flood test rice; assay type: in vivo, Oryza sativa
# Method in brief: as §2
# smallflower flatsedge = test: Test B flood test smallflower flatsedge; assay type: in vivo, Cyperus difformis
# Method in brief: as §2
# cocklebur = test: Test B pre/postemergence cocklebur; assay type: in vivo, Xanthium strumarium
# Method in brief: as §1
# [1] = Preemergence, Rate 31 g/ha, visual rating, scale 0 to 10 (0 no effect, 10 complete control)
# [2] = Preemergence, Rate 62 g/ha, scale of 0 to 10 where 0 is no effect and 10 is complete control
# [3] = Preemergence, Rate 250 g/ha, scale of 0 to 10 where 0 is no effect and 10 is complete control
# [4] = Preemergence, Rate 500 g/ha, scale of 0 to 10 where 0 is no effect and 10 is complete control
# [5] = Rate 62 g/ha, Postemergence, scale of 0 to 10 where 0 is no effect and 10 is complete control
# [6] = Rate 125 g/ha, Postemergence, scale 0 to 10
# [7] = Rate 125 g/ha, Preemergence, scale of 0 to 10 where 0 is no effect and 10 is complete control
# [8] = Rate 500 g/ha, Postemergence, scale 0 to 10, 0 no effect, 10 complete control
# [9] = Rate 31 g/ha, Postemergence, scale 0 to 10
# [10] = Rate 62 g/ha, headed Pre-emergence (flood test species), scale 0 to 10 (0 no effect, 10 complete control)
# [11] = Rate 125 g/ha, Pre-emergence, flood test species, scale 0 to 10 where 0 is no effect and 10 is complete control
# [12] = Rate 250 g/ha, Pre-emergence, flood-test species, scale 0 to 10, 0 is no effect, 10 is complete control
# [13] = Rate 500 g/ha, Pre-emergence, flood test species, scale 0 to 10 (0 no effect, 10 complete control)
smiles,measurement,setting,value
CC(C)N(C(=O)n1oc(=O)n(N(C)C)c1=O)c1ccccc1 [Compound 225],Wheat plant response rating,wheat; [1],0
same,Wheat plant response rating,wheat; [2],5
same,Wheat plant response rating,wheat; [3],8
same,"Plant response rating, Wheat",wheat; [4],8
same,Wheat plant response rating,wheat; [5],3
same,Wheat plant response rating,wheat; [6],6
same,Wheat plant response rating,wheat; [7],6
same,"Plant response rating (0 to 10; 0 is no effect, 10 is complete control), Wheat","wheat; Rate 250 g/ha, Postemergence",7
same,Wheat plant response rating,wheat; [8],8
same,Bedstraw plant response rating,bedstraw; [2],0
same,Bedstraw plant response rating,bedstraw; [3],0
same,"Plant response rating, Bedstraw",bedstraw; [4],2
same,Bedstraw plant response rating,bedstraw; [5],0
same,Bedstraw plant response rating,bedstraw; [6],0
same,Bedstraw plant response rating,bedstraw; [7],0
same,"Plant response rating (0 to 10; 0 is no effect, 10 is complete control), Bedstraw","bedstraw; Rate 250 g/ha, Postemergence",0
same,Bedstraw plant response rating,bedstraw; [8],0
same,Wild oats plant response rating,wild oat; [1],0
same,Wild oats plant response rating,wild oat; [2],4
same,Wild oats plant response rating,wild oat; [3],10
same,"Plant response rating, Wild oats",wild oat; [4],10
same,Wild oats plant response rating,wild oat; [5],0
same,Wild oats plant response rating,wild oat; [6],2
same,Wild oats plant response rating,wild oat; [7],7
same,"Plant response rating (0 to 10; 0 is no effect, 10 is complete control), Wild oats","wild oat; Rate 250 g/ha, Postemergence",3
same,Wild oats plant response rating,wild oat; [8],2
same,Crabgrass plant response rating,crabgrass; [1],2
same,Crabgrass plant response rating,crabgrass; [2],9
same,Crabgrass plant response rating,crabgrass; [3],10
same,"Plant response rating, Crabgrass",crabgrass; [4],10
same,Crabgrass plant response rating,crabgrass; [9],0
same,Crabgrass plant response rating,crabgrass; [5],5
same,Crabgrass plant response rating,crabgrass; [6],8
same,Crabgrass plant response rating,crabgrass; [7],10
same,Crabgrass plant response rating,crabgrass; [8],8
same,Corn plant response rating,corn; [1],0
same,Corn plant response rating,corn; [2],0
same,Corn plant response rating,corn; [3],4
same,"Plant response rating, Corn",corn; [4],6
same,Corn plant response rating,corn; [9],0
same,Corn plant response rating,corn; [5],0
same,Corn plant response rating,corn; [6],2
same,Corn plant response rating,corn; [7],3
same,"Plant response rating (0 to 10; 0 is no effect, 10 is complete control), Corn","corn; Rate 250 g/ha, Postemergence",2
same,Corn plant response rating,corn; [8],6
same,Giant foxtail plant response rating,giant foxtail; [1],8
same,Giant foxtail plant response rating,giant foxtail; [2],8
same,Giant foxtail plant response rating,giant foxtail; [3],10
same,"Plant response rating, Giant foxtail",giant foxtail; [4],10
same,Giant foxtail plant response rating,giant foxtail; [9],0
same,Giant foxtail plant response rating,giant foxtail; [5],8
same,Giant foxtail plant response rating,giant foxtail; [6],8
same,Giant foxtail plant response rating,giant foxtail; [7],10
same,"Plant response rating (0 to 10; 0 is no effect, 10 is complete control), Giant foxtail","giant foxtail; Rate 250 g/ha, Postemergence",8
same,Giant foxtail plant response rating,giant foxtail; [8],9
same,B. signalgrass plant response rating,surinam grass; [1],0
same,B. signalgrass plant response rating,surinam grass; [2],1
same,B. signalgrass plant response rating,"surinam grass; Preemergence, Rate 250 g/ha, scale 0 to 10, 0 is no effect, 10 is complete control",7
same,"Plant response rating, B. signalgrass",surinam grass; [4],7
same,B. signalgrass plant response rating,surinam grass; [9],0
same,B. signalgrass plant response rating,surinam grass; [5],2
same,B. signalgrass plant response rating,"surinam grass; Rate 125 g/ha, Postemergence, scale 0 (no effect) to 10 (complete control)",5
same,B. signalgrass plant response rating,surinam grass; [7],7
same,"Plant response rating (0 to 10; 0 is no effect, 10 is complete control), B. signalgrass","surinam grass; Rate 250 g/ha, Postemergence",5
same,B. signalgrass plant response rating,surinam grass; [8],9
same,Velvetleaf plant response rating,velvetleaf; [1],0
same,Velvetleaf plant response rating,velvetleaf; [2],4
same,Velvetleaf plant response rating,velvetleaf; [3],6
same,"Plant response rating, Velvetleaf",velvetleaf; [4],7
same,Velvetleaf plant response rating,velvetleaf; [5],0
same,Velvetleaf plant response rating,velvetleaf; [6],0
same,Velvetleaf plant response rating,velvetleaf; [7],5
same,"Plant response rating (0 to 10; 0 is no effect, 10 is complete control), Velvetleaf","velvetleaf; Rate 250 g/ha, Postemergence",0
same,Velvetleaf plant response rating,velvetleaf; [8],3
same,Morningglory plant response rating,morningglory; [1],0
same,Morningglory plant response rating,morningglory; [2],0
same,Morningglory plant response rating,morningglory; [3],4
same,"Plant response rating, Morningglory",morningglory; [4],8
same,Morningglory plant response rating,morningglory; [9],2
same,Morningglory plant response rating,morningglory; [5],2
same,Morningglory plant response rating,morningglory; [6],3
same,Morningglory plant response rating,morningglory; [7],4
same,"Plant response rating (0 to 10; 0 is no effect, 10 is complete control), Morningglory","morningglory; Rate 250 g/ha, Postemergence",6
same,Morningglory plant response rating,morningglory; [8],6
same,Barnyardgrass plant response rating,bamyardgrass; [10],0
same,Barnyardgrass plant response rating,bamyardgrass; [11],0
same,Barnyardgrass plant response rating,bamyardgrass; [12],0
same,Barnyardgrass plant response rating,bamyardgrass; [13],0
same,Redroot pigweed plant response rating,pigweed; [1],6
same,Redroot pigweed plant response rating,pigweed; [2],6
same,Redroot pigweed plant response rating,pigweed; [3],10
same,"Plant response rating, Redroot pigweed",pigweed; [4],10
same,Redroot pigweed plant response rating,pigweed; [9],0
same,Redroot pigweed plant response rating,pigweed; [5],0
same,Redroot pigweed plant response rating,pigweed; [6],0
same,Redroot pigweed plant response rating,pigweed; [7],7
same,"Plant response rating (0 to 10; 0 is no effect, 10 is complete control), Redroot pigweed","pigweed; Rate 250 g/ha, Postemergence",0
same,Redroot pigweed plant response rating,pigweed; [8],2
same,Blackgrass plant response rating,blackgrass; [1],0
same,Blackgrass plant response rating,blackgrass; [2],2
same,Blackgrass plant response rating,blackgrass; [3],10
same,"Plant response rating, Blackgrass",blackgrass; [4],10
same,Blackgrass plant response rating,blackgrass; [9],0
same,Blackgrass plant response rating,blackgrass; [5],6
same,Blackgrass plant response rating,blackgrass; [6],9
same,Blackgrass plant response rating,blackgrass; [7],10
same,"Plant response rating (0 to 10; 0 is no effect, 10 is complete control), Blackgrass","blackgrass; Rate 250 g/ha, Postemergence",9
same,Blackgrass plant response rating,blackgrass; [8],8
same,Soybean plant response rating,soybean; [1],0
same,Soybean plant response rating,soybean; [2],0
same,Soybean plant response rating,soybean; [3],3
same,"Plant response rating, Soybean",soybean; [4],6
same,Soybean plant response rating,soybean; [5],2
same,Soybean plant response rating,soybean; [6],3
same,Soybean plant response rating,soybean; [7],2
same,"Plant response rating (0 to 10; 0 is no effect, 10 is complete control), Soybean","soybean; Rate 250 g/ha, Postemergence",5
same,Soybean plant response rating,soybean; [8],4
same,Rice plant response rating,rice; [10],0
same,Rice plant response rating,rice; [11],0
same,Rice plant response rating,rice; [12],0
same,Rice plant response rating,rice; [13],0
same,S. Flatsedge plant response rating,smallflower flatsedge; [10],0
same,S. Flatsedge plant response rating,smallflower flatsedge; [11],0
same,S. Flatsedge plant response rating,smallflower flatsedge; [12],0
same,S. Flatsedge plant response rating,smallflower flatsedge; [13],0
same,Cocklebur plant response rating,cocklebur; [1],0
same,Cocklebur plant response rating,cocklebur; [2],0
same,Cocklebur plant response rating,cocklebur; [3],2
same,"Plant response rating, Cocklebur",cocklebur; [4],2
same,Cocklebur plant response rating,cocklebur; [9],0
same,Cocklebur plant response rating,cocklebur; [5],0
same,Cocklebur plant response rating,cocklebur; [6],0
same,Cocklebur plant response rating,cocklebur; [7],2
same,"Plant response rating (0 to 10; 0 is no effect, 10 is complete control), Cocklebur","cocklebur; Rate 250 g/ha, Postemergence",0
same,Cocklebur plant response rating,cocklebur; [8],0
